From US20260201008A1, “SECRETIN-DERIVED GLP1R SELECTIVE AGONISTS” (GUBRA A/S, priority 2023, published 2026) come the findings set out here.

Molecules are shown by their SMILES. Numbered stars: 1 amine (or outer) side, 2 acyl side, 3 side chain; on linkers, the order of the positions; unused ones are H or OH. Square brackets hold non-standard residues; d marks the D form. Side chains are listed from the residue outwards. Peptide text beside a SMILES is read from it. * marks the point of attachment. C20 diacid = O=C(O)CCCCCCCCCCCCCCCCCCC(=O)*; γGlu = O=C(O)[C@H](CCC(=O)[*:2])N[*:1]; AEEA = NCCOCCOCC(=O)O; Aib = CC(C)(N)C(=O)O

The nature of data set [1]: Turbidity of crude library peptides (absorbance at 600 nm). The note with it: Physical stability of peptides. It counts as physicochemical. Put shortly:
(§1)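 Values reflect mean ThT emission (ex 450, em 480 nm) over 72 h at 40° C, read every 10 min after 5 min shaking at 700 rpm, plus a single initial absorbance at 600 nm for turbidity. Peptides were at 267 μM, pH 4.0 acetate or pH 7.0 phosphate (50 mM), with 4 μM ThT.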

Data set [2] can be described thus: Fibril formation of crude library peptides (Thioflavin T). It counts as physicochemical. Also on record: key: average ThT fluorescence emission at 480 nm (ex 450 nm), raw units. Conditions: Physical stability of peptides. In outline:
as §1

Another data set has as its target GLP1R (Homo sapiens, UniProt P43220). Put plainly: hGLP1R potency, cAMP accumulation in CHO-K1 cells stably overexpressing hGLP1R. It counts as cell-based. The arrangement: host or cells: CHO-K1. The note with it: for EC50: cAMP accumulation, CHO-K1 cells overexpressing hGLP1R, read-out: hGLP1R pEC50 (converted); for SCTR EC50/GLP1R EC50 ratio: selectivity for hGLP1R over hSCTR, cAMP accumulation in CHO-K1 cells. Put shortly:
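Potency reflects cAMP accumulation measured by time-resolved fluorescence energy transfer after a 30 min room-temperature stimulation in IBMX-containing (0.5 mM) DPBS with casein. Purified peptides were tested in duplicate over eleven threefold dilutions, and EC50 was obtained from sigmoid concentration-response fitting.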
(Cyclic AMP is a second messenger, typically raised through Gs and lowered through Gi signalling.)

For the next data set, the target named is SCTR (Homo sapiens, UniProt P47872). The data set is described as follows: hSCTR potency, cAMP accumulation in CHO-K1 cells stably overexpressing hSCTR. It counts as cell-based. Also on record: alternatively Euroscreen ES-712-AF; FAST-0161L; host or cells: CHO-K1. Conditions: cAMP accumulation, CHO-K1 cells overexpressing hSCTR; read-out: hSCTR pEC50 (converted). Put shortly: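 Potency reflects cAMP accumulation after 30 min agonist exposure at room temperature in hSCTR-expressing CHO-K1 cells, with 0.5 mM IBMX present to block phosphodiesterase. EC50 was derived by nonlinear regression.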
SCTR, sequence (P47872 23-440): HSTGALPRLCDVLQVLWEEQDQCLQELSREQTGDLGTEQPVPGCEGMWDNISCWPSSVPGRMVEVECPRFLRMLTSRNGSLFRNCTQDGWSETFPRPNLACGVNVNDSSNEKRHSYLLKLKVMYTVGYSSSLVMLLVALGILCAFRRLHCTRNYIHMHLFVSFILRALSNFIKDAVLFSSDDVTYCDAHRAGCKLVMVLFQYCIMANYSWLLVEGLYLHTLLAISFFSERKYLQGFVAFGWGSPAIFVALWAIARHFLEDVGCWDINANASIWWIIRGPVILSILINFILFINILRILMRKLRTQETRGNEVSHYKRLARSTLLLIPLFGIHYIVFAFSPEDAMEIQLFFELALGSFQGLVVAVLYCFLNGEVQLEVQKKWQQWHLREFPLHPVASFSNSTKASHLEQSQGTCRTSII

GLP1R, sequence (P43220 24-463): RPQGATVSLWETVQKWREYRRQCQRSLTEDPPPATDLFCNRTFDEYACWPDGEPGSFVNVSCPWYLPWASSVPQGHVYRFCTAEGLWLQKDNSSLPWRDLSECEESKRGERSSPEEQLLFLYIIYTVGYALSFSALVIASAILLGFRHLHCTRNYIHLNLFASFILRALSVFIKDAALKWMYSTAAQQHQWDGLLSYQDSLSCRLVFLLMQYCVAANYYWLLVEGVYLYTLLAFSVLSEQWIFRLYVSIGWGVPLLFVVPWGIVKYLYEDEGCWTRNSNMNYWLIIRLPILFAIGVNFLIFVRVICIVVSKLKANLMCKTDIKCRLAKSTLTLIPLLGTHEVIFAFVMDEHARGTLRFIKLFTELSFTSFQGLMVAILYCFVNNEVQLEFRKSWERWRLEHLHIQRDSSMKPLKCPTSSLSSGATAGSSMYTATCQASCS

Turning to `CC[C@H](C)[C@H](NC(=O)[C@H](Cc1ccccc1)NC(=O)[C@H](CCCNC(=N)N)NC(=O)[C@H](CCC(N)=O)NC(=O)[C@H](CC(C)C)NC(=O)[C@H](C)NC(=O)[C@H](C)NC(=O)CNC(=O)[C@H](CCC(=O)O)NC(=O)[C@H](CC(C)C)NC(=O)[C@H](CC(C)C)NC(=O)C(C)(C)NC(=O)[C@H](CO)NC(=O)[C@@H]1CCCN1C(=O)[C@H](CC(=O)O)NC(=O)[C@H](CO)NC(=O)[C@@H](NC(=O)[C@H](Cc1ccccc1)NC(=O)[C@@H](NC(=O)CNC(=O)[C@H](CCC(=O)O)NC(=O)C(C)(C)NC(=O)[C@@H](N)Cc1c[nH]cn1)[C@@H](C)O)[C@@H](C)O)C(=O)N[C@@H](CCC(N)=O)C(=O)N[C@@H](Cc1c[nH]c2ccccc12)C(=O)N[C@@H](CC(C)C)C(=O)N[C@H](C(N)=O)C(C)C` [compound 125] (H-H[Aib]EGTFTSDPS[Aib]LLEGAALQRFIQWLV-NH2), the “Turbidity (pH 7)” value in data set [1] worked out at 0.11. In data set [2], this compound showed a Fibril formation of 4675. In addition, on GLP1R, the EC50 is 3.98 nM and the “SCTR EC50/GLP1R EC50 ratio” value stood at 2342. Also, at SCTR, the EC50 was 10000 nM.

As for `CC[C@H](C)[C@H](NC(=O)[C@H](Cc1ccccc1)NC(=O)[C@H](CCCNC(=N)N)NC(=O)[C@H](CCC(N)=O)NC(=O)[C@H](CC(C)C)NC(=O)[C@H](C)NC(=O)[C@H](C)NC(=O)CNC(=O)[C@H](CCC(=O)O)NC(=O)[C@H](CC(C)C)NC(=O)[C@H](CC(C)C)NC(=O)[C@H](Cc1ccccc1)NC(=O)[C@H](CO)NC(=O)[C@@H]1CCCN1C(=O)[C@H](CC(=O)O)NC(=O)[C@H](CO)NC(=O)[C@@H](NC(=O)[C@H](Cc1ccccc1)NC(=O)[C@@H](NC(=O)CNC(=O)[C@H](CCC(=O)O)NC(=O)C(C)(C)NC(=O)[C@@H](N)Cc1c[nH]cn1)[C@@H](C)O)[C@@H](C)O)C(=O)N[C@@H](CCC(N)=O)C(=O)N[C@@H](Cc1c[nH]c2ccccc12)C(=O)N[C@@H](CC(C)C)C(=O)N[C@H](C(N)=O)C(C)C` [compound 126] (H-H[Aib]EGTFTSDPSFLLEGAALQRFIQWLV-NH2), the “Turbidity (pH 7)” value in data set [1] worked out at 0.26. Also, the Fibril formation in data set [2] is on record as 41799. Further, at GLP1R, the EC50 was 7.94 nM and the “SCTR EC50/GLP1R EC50 ratio” value amounted to 253. The EC50 at SCTR is 2000 nM.

Take `CC[C@H](C)[C@H](NC(=O)[C@H](Cc1ccccc1)NC(=O)[C@H](CCCNC(=N)N)NC(=O)[C@H](CCC(N)=O)NC(=O)[C@H](CC(C)C)NC(=O)[C@H](C)NC(=O)[C@H](C)NC(=O)CNC(=O)[C@H](CCC(=O)O)NC(=O)[C@H](CC(C)C)NC(=O)[C@H](CC(C)C)NC(=O)[C@H](Cc1c[nH]c2ccccc12)NC(=O)[C@H](CO)NC(=O)[C@@H]1CCCN1C(=O)[C@H](CC(=O)O)NC(=O)[C@H](CO)NC(=O)[C@@H](NC(=O)[C@H](Cc1ccccc1)NC(=O)[C@@H](NC(=O)CNC(=O)[C@H](CCC(=O)O)NC(=O)C(C)(C)NC(=O)[C@@H](N)Cc1c[nH]cn1)[C@@H](C)O)[C@@H](C)O)C(=O)N[C@@H](CCC(N)=O)C(=O)N[C@@H](Cc1c[nH]c2ccccc12)C(=O)N[C@@H](CC(C)C)C(=O)N[C@H](C(N)=O)C(C)C` [compound 127] (H-H[Aib]EGTFTSDPSWLLEGAALQRFIQWLV-NH2): the “Turbidity (pH 7)” value in data set [1] is 0.19. Besides, the Fibril formation in data set [2] is reported as 11084. The EC50 at GLP1R was 7.94 nM; at SCTR, 3980 nM. In addition, at GLP1R, the “SCTR EC50/GLP1R EC50 ratio” value came out at 464.

As for `CC[C@H](C)[C@H](NC(=O)[C@H](Cc1ccccc1)NC(=O)[C@H](CCCNC(=N)N)NC(=O)[C@H](CCC(N)=O)NC(=O)[C@H](CC(C)C)NC(=O)[C@H](C)NC(=O)[C@H](C)NC(=O)CNC(=O)[C@H](CCC(=O)O)NC(=O)[C@H](CC(C)C)NC(=O)[C@H](CC(C)C)NC(=O)[C@H](Cc1ccc(O)cc1)NC(=O)[C@H](CO)NC(=O)[C@@H]1CCCN1C(=O)[C@H](CC(=O)O)NC(=O)[C@H](CO)NC(=O)[C@@H](NC(=O)[C@H](Cc1ccccc1)NC(=O)[C@@H](NC(=O)CNC(=O)[C@H](CCC(=O)O)NC(=O)C(C)(C)NC(=O)[C@@H](N)Cc1c[nH]cn1)[C@@H](C)O)[C@@H](C)O)C(=O)N[C@@H](CCC(N)=O)C(=O)N[C@@H](Cc1c[nH]c2ccccc12)C(=O)N[C@@H](CC(C)C)C(=O)N[C@H](C(N)=O)C(C)C` [compound 128] (H-H[Aib]EGTFTSDPSYLLEGAALQRFIQWLV-NH2), the “Turbidity (pH 7)” value in data set [1] came to 0.20. The compound further had a Fibril formation in data set [2] of 6144. Also, the EC50 is 15.8 nM on GLP1R and 20000 nM on SCTR. Moreover, at GLP1R, the “SCTR EC50/GLP1R EC50 ratio” value came out at 1467.

As to `CC[C@H](C)[C@H](NC(=O)[C@H](Cc1ccccc1)NC(=O)[C@H](CCCNC(=N)N)NC(=O)[C@H](CCC(N)=O)NC(=O)[C@H](CC(C)C)NC(=O)[C@H](C)NC(=O)[C@H](C)NC(=O)CNC(=O)[C@H](CCC(=O)O)NC(=O)[C@H](CC(C)C)NC(=O)[C@H](CC(C)C)NC(=O)[C@@H](NC(=O)[C@H](CO)NC(=O)[C@@H]1CCCN1C(=O)[C@H](CC(=O)O)NC(=O)[C@H](CO)NC(=O)[C@@H](NC(=O)[C@H](Cc1ccccc1)NC(=O)[C@@H](NC(=O)CNC(=O)[C@H](CCC(=O)O)NC(=O)C(C)(C)NC(=O)[C@@H](N)Cc1c[nH]cn1)[C@@H](C)O)[C@@H](C)O)C(C)C)C(=O)N[C@@H](CCC(N)=O)C(=O)N[C@@H](Cc1c[nH]c2ccccc12)C(=O)N[C@@H](CC(C)C)C(=O)N[C@H](C(N)=O)C(C)C` [compound 129] (H-H[Aib]EGTFTSDPSVLLEGAALQRFIQWLV-NH2), the “Turbidity (pH 7)” value in data set [1] is 0.12. The Fibril formation in data set [2] turned out to be 5327. Moreover, at GLP1R, the EC50 was 7.94 nM and the “SCTR EC50/GLP1R EC50 ratio” value turned out to be 1220. Moreover, the EC50 on SCTR was 10000 nM.

For the compound `CC(C)C[C@H](NC(=O)[C@H](Cc1ccccc1)NC(=O)[C@H](CCCNC(=N)N)NC(=O)[C@H](CCC(N)=O)NC(=O)[C@H](CC(C)C)NC(=O)C(C)(C)NC(=O)[C@H](C)NC(=O)[C@H](CCC(=O)O)NC(=O)[C@H](CCC(=O)O)NC(=O)[C@H](Cc1c[nH]c2ccccc12)NC(=O)[C@H](CC(C)C)NC(=O)[C@H](Cc1ccc(O)cc1)NC(=O)[C@H](CO)NC(=O)[C@@H](NC(=O)[C@H](CC(=O)O)NC(=O)[C@H](CO)NC(=O)[C@@H](NC(=O)[C@H](Cc1ccccc1)NC(=O)[C@@H](NC(=O)CNC(=O)[C@H](CCC(=O)O)NC(=O)C(C)(C)NC(=O)[C@@H](N)Cc1c[nH]cn1)[C@@H](C)O)[C@@H](C)O)C(C)C)C(=O)N[C@@H](CCC(=O)O)C(=O)N[C@@H](CCCCNC(=O)COCCOCCNC(=O)COCCOCCNC(=O)CC[C@H](NC(=O)CCCCCCCCCCCCCCCCCCC(=O)O)C(=O)O)C(=O)N[C@@H](CC(C)C)C(=O)N[C@H](C(N)=O)C(C)C` [compound 130] (H-H[Aib]EGTFTSDVSYLWEEA[Aib]LQRFLEK([AEEA-AEEA-γGlu-C20 diacid])LV-NH2), the “Turbidity (pH 7)” value in data set [1] was determined as 0.08. In data set [2], the Fibril formation was 4181. On GLP1R, the EC50 was 0.0316 nM and the “SCTR EC50/GLP1R EC50 ratio” value was 34990. Further, the EC50 at SCTR is 1000 nM.

For the compound `CC(C)C[C@H](NC(=O)[C@H](Cc1ccccc1)NC(=O)[C@H](CCCNC(=N)N)NC(=O)[C@H](CCC(N)=O)NC(=O)[C@H](CC(N)=O)NC(=O)C(C)(C)NC(=O)[C@H](C)NC(=O)[C@H](CCC(=O)O)NC(=O)[C@H](CCC(=O)O)NC(=O)[C@H](CCCCNC(=O)COCCOCCNC(=O)COCCOCCNC(=O)CC[C@H](NC(=O)CCCCCCCCCCCCCCCCCCC(=O)O)C(=O)O)NC(=O)[C@H](CC(C)C)NC(=O)[C@H](Cc1ccc(O)cc1)NC(=O)[C@H](CO)NC(=O)[C@@H](NC(=O)[C@H](CC(=O)O)NC(=O)[C@H](CO)NC(=O)[C@@H](NC(=O)[C@H](Cc1ccccc1)NC(=O)[C@@H](NC(=O)CNC(=O)[C@H](CCC(=O)O)NC(=O)C(C)(C)NC(=O)[C@@H](N)Cc1c[nH]cn1)[C@@H](C)O)[C@@H](C)O)C(C)C)C(=O)N[C@@H](CCC(=O)O)C(=O)N[C@@H](Cc1c[nH]cn1)C(=O)N[C@@H](CC(C)C)C(=O)N[C@H](C(N)=O)C(C)C` [compound 131] (H-H[Aib]EGTFTSDVSYLK([AEEA-AEEA-γGlu-C20 diacid])EEA[Aib]NQRFLEHLV-NH2), the “Turbidity (pH 7)” value in data set [1] was found to be 0.09. This compound gave a Fibril formation in data set [2] of 2709. In addition, on GLP1R, the EC50 is 0.00501 nM and the “SCTR EC50/GLP1R EC50 ratio” value amounted to 996093. The EC50 at SCTR was 5010 nM.
